Structures can show the parent of a compound that is named as a salt. Each block holds one compound with its values, some of them ahead of it.
Legend:
[1] = Particle size distribution by laser diffraction (LDS method); assay type: physicochemical; details: for D95 of crystallization sample: LDS; for D95 of micronization sample: after micronization, Chrispro MC200 jet mill, nitrogen, 7 bar
Description: LDS method. A dispersion liquid has been made consisting of (0.7 mg/ml) lecithin (used as a surfactant) in iso-octane saturated with asenapine maleate. The solution is stirred overnight. Subsequently the solution is filtered over a 0.22 μm filter. The samples were prepared by weighing approximately 30 mg asenapine maleate in a centrifugal tube and adding 2 ml of the dispersion liquid. Ultrasonic treatment of the samples was performed for 2 minutes in an ultrasonic bath (Transsonic 310). Subsequently, the particle size distribution of the sample was analyzed using laser diffraction (Malvern Mastersizer S, UK). The particle size distribution has been calculated using the Fraunhofer algorithm.

[2] = Micronization in jet mill, polymorphic form of the product by XRPD; assay type: physicochemical; details: polymorphic form after micronization at 7 bar
Description: X-ray powder diffraction (XRPD) spectra were obtained on an […] Panalytical Reflection diffractometer in a Bragg-Brantano setup, Cu-Kα radiation, settings 45 kV and 40 mA together with an X'celerator detector. The slits used: anti-scatter slit 1°, divergence slit 1⁄2°, soller slits 0.02 rad. Measuring conditions: scan range 5-40°2-[…] (θ), step size 0.0167°2-[…]. The samples were measured on a rotating sample disk of Si with a speed of 15 rpm.

[3] = Particle size observed in micrographs / microscopic picture; assay type: physicochemical; details: non-micronized crystallized batch
[4] = known crystalline form, Funke et al.; cited from earlier work

D95 of crystallization sample ([1]; non-micronized crystallized batch, listed as C1): 199 μm
Structure (SMILES): CN1CC2c3ccccc3Oc3ccc(Cl)cc3C2C1 (centres unmarked) [batch C1, asenapine maleate]

D95 of micronization sample ([1]; listed as M3): <16 μm
polymorph of micronization sample ([2]; listed as M3): 80% orthorhombic, 20%
Structure (SMILES): CN1CC2c3ccccc3Oc3ccc(Cl)cc3C2C1 (centres unmarked) [batch M3, asenapine maleate]

D95 of crystallization sample ([1]; non-micronized crystallized batch, listed as C2): 221 μm
Structure (SMILES): CN1CC2c3ccccc3Oc3ccc(Cl)cc3C2C1 (centres unmarked) [batch C2, asenapine maleate]

D95 of micronization sample ([1]; listed as M5): <6 μm
polymorph of micronization sample ([2]; listed as M5): >95% orthorhombic
Structure (SMILES): CN1CC2c3ccccc3Oc3ccc(Cl)cc3C2C1 (centres unmarked) [batch M5, asenapine maleate]

D95 of micronization sample ([1]; listed as M4): <9 μm
polymorph of micronization sample ([2]; listed as M4): >95% orthorhombic
Structure (SMILES): CN1CC2c3ccccc3Oc3ccc(Cl)cc3C2C1 (centres unmarked) [batch M4, asenapine maleate]

average particle size by LDS ([1]; non-micronized crystallized batch): ~30 μm
D95 of crystallization sample ([1]; non-micronized crystallized batch, listed as C5): 30-100 μm
particle size in microscopic picture [3]: up to 100 μm
Structure (SMILES): CN1CC2c3ccccc3Oc3ccc(Cl)cc3C2C1 (centres unmarked) [batch C5, asenapine maleate]

D95 of micronization sample ([1]; listed as M7): <12 μm
polymorph of micronization sample ([2]; listed as M7): >95% orthorhombic
Structure (SMILES): CN1CC2c3ccccc3Oc3ccc(Cl)cc3C2C1 (centres unmarked) [batch M7, asenapine maleate]

Structure (SMILES): CN1CC2c3ccccc3Oc3ccc(Cl)cc3C2C1.O=C(O)/C=C\C(=O)O (centres unmarked) [asenapine maleate]
size of crystalline particles as observed in micrographs [4]: over 100 μm

D95 of micronization sample ([1]; listed as M6): <10 μm
polymorph of micronization sample ([2]; listed as M6): >95% orthorhombic
Structure (SMILES): CN1CC2c3ccccc3Oc3ccc(Cl)cc3C2C1 (centres unmarked) [batch M6, asenapine maleate]

D95 of micronization sample ([1]; listed as M2): <14 μm
polymorph of micronization sample ([2]; listed as M2): >95% monoclinic
Structure (SMILES): CN1CC2c3ccccc3Oc3ccc(Cl)cc3C2C1 (centres unmarked) [batch M2, asenapine maleate]

D95 of micronization sample ([1]; listed as M1): <12 μm
polymorph of micronization sample ([2]; listed as M1): >95% orthorhombic
Structure (SMILES): CN1CC2c3ccccc3Oc3ccc(Cl)cc3C2C1 (centres unmarked) [batch M1, asenapine maleate]
